Experimental data published in patent US8198299B2, “Cycloalkylidene and heterocycloalkylidene inhibitor compounds” (Gilead Sciences, Inc., priority 2008, dated 2012).

Molecular target: HDAC 1 (Homo sapiens, UniProt Q13547)
Test: HDAC 1 inhibition assay with about 3-hour enzyme/compound preincubation (fluorophore/quencher peptide substrate)
Type: biochemical
Conditions: 3-hour preincubation of enzyme and compound at room temperature; read-out: HDAC 1 inhibitory activity (IC50 [μM]) (3-hour preincubation)
Protocol: HDAC inhibitory activity of the compound of Example 1 was measured by two types of assays in which HDAC 1 and 6 were used as a target molecule. The first assay was carried out without preincubation after addition of the enzyme. The test compound was suspended in and titrated in DMSO. It was then spotted into a 384-well test plate. The enzyme, HDAC 1 or 6, was diluted in assay buffer containing 25 mM Tris-HCl (pH 8.0), 137 mM NaCl, 2.7 mM KCl, and 0.01% Tween-20 and added to the pre-spotted compound. The peptide substrate containing a fluorophore/quencher pair was diluted in the same assay buffer and added to the compound/enzyme mix initiating the reaction. The reaction incubated at room temperature for about 45 minutes. A concentrated developer solution was diluted in the assay buffer, and added to the reaction. The reaction was incubated at room temperature for about 15 minutes and relative fluorescence was read on an instrument reader.
The second assay is similar to the first assay described above, except that preincubation is carried out for about 3 hours after the enzyme is introduced. The test compound was suspended in, and titrated in DMSO. It was then spotted into a 384-well test plate. The enzyme, HDAC 1 or 6, was diluted in the same assay buffer as used in the previous assay and added to the pre-spotted compound. The enzyme/compound mix was incubated at room temperature for about 3 hours. The peptide substrate containing a fluorophore/quencher pair was diluted in the assay buffer and added to the compound/enzyme mix initiating the reaction. The reaction incubated at room temperature for 45 minutes. A concentrated developer solution was diluted in the assay buffer, and added to the reaction. The reaction was incubated at room temperature for about 15 minutes and relative fluorescence was read on an instrument reader.

HDAC 1, sequence (Q13547 whole entry, species assumed): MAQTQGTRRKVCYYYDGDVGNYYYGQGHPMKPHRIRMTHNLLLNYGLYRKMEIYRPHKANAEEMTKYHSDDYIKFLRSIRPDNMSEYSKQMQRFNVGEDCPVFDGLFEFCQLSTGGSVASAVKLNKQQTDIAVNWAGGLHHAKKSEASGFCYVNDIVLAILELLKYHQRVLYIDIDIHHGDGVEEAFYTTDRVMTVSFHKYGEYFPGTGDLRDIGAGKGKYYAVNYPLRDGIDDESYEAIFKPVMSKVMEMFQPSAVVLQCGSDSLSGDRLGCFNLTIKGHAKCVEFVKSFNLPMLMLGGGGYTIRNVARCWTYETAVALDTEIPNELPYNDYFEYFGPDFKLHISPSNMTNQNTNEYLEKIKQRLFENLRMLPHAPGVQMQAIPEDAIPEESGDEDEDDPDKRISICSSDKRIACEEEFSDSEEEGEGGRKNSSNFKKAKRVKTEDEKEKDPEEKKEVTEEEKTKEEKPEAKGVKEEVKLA

Structure (SMILES)	IC50 [µM]
Nc1ccc(-c2cccs2)cc1NC(=O)c1ccc(C2(c3nnn[nH]3)CCOCC2)cc1 [Example 38, 4-(4-(1H-tetrazol-5-yl)tetrahydropyran-4-yl)-N-(2-amino-5-(thiophen-2-yl)phenyl)benzamide]	0.00311
Nc1ccc(-c2ccc(F)cc2)cc1NC(=O)c1ccc(C2(c3nnn[nH]3)CCOCC2)cc1 [Example 39, 4-(4-(1H-tetrazol-5-yl)tetrahydropyran-4-yl)-N-(4-amino-4′-fluorobiphenyl-3-yl)benzamide]	0.00333
O=C(NO)c1ccc(C2(c3nccs3)CCOCC2)cc1 [Example 43, N-hydroxy-4-(4-(thiazol-2-yl)tetrahydropyran-4-yl)benzamide]	0.363
Nc1ccc(-c2ccc(F)cc2)cc1NC(=O)c1ccc(C2(c3nccs3)CC2)cc1 [Example 48, N-(4-amino-4′-fluorobiphenyl-3-yl)-4-(1-(thiazol-2-yl)cyclopropyl)benzamide]	0.00294
Nc1ccc(-c2ccc(F)cc2)cc1NC(=O)c1ccc(C2(c3nc(-c4cnccn4)cs3)CCOCC2)cc1 [Example 54, N-(4-amino-4′-fluorobiphenyl-3-yl)-4-(4-(4-(pyrazin-2-yl)thiazol-2-yl)tetrahydropyran-4-yl)benzamide]	0.00625
Nc1ccccc1NC(=O)c1ccc(C2(c3nc(-c4cnccn4)cs3)CC2)cc1 [Example 55, N-(2-aminophenyl)-4-(1-(4-(pyrazin-2-yl)thiazol-2-yl)cyclopropyl)benzamide]	0.0444
CN1CCc2nc(C3(c4ccc(C(=O)Nc5cc(-c6ccc(F)cc6)ccc5N)cc4)CC3)sc2C1 [Example 56, N-(4-amino-4′-fluorobiphenyl-3-yl)-4-(1-(5-methyl-4,5,6,7-tetrahydrothiazolo[5,4-c]pyridine-2-yl)cyclopropyl)benzamide]	0.00325
Nc1ccc(-c2ccc(F)cc2)cc1NC(=O)c1ccc(C2(c3nc4c(s3)COCC4)CC2)cc1 [Example 58, N-(4-amino-4′-fluorobiphenyl-3-yl)-4-(1-(6,7-dihydropyrano[4,3-d]thiazol-2-yl)cyclopropyl)benzamide]	0.0208
Nc1ccc(-c2ccc(Cl)s2)cc1NC(=O)c1ccc(C2(c3ccccn3)CCOCC2)cc1 [Example 60, N-(2-amino-5-(5-chlorothiophen-2-yl)phenyl)-4-(4-(pyridin-2-yl)tetrahydropyran-4-yl)benzamide]	0.00616
Cc1nc(C2(c3ccc(C(=O)Nc4cc(-c5ccc(F)cc5)ccc4N)cc3)CCOCC2)sc1C [Example 62, N-(4-amino-4′-fluorobiphenyl-3-yl)-4-(4-(4,5-dimethylthiazol-2-yl)tetrahydropyran-4-yl)benzamide]	0.00896
Cc1cnc(C2(c3ccc(C(=O)Nc4cc(-c5ccc(F)cc5)ccc4N)cc3)CCOCC2)s1 [Example 63, N-(4-amino-4′-fluorobiphenyl-3-yl)-4-(4-(5-methylthiazol-2-yl)tetrahydropyran-4-yl)benzamide]	0.00428

Further molecules by falling IC50, results first:

IC50 [µM]	Structure (SMILES)
0.0979	O=C(NO)c1ccc(C2(c3nc(-c4cnccn4)cs3)CCOCC2)cc1 [Example 53, N-hydroxy-4-(4-(4-(pyrazin-2-yl)thiazol-2-yl)tetrahydropyran-4-yl)benzamide]
0.0351	O=C(NO)c1ccc(C2(c3nc(-c4cccnc4)cs3)CCOCC2)cc1 [Example 42, N-hydroxy-4-(4-(4-(pyridin-3-yl)thiazol-2-yl)tetrahydropyran-4-yl)benzamide]
0.00792	Cc1ccc(-c2ccc(N)c(NC(=O)c3ccc(C4(c5nccs5)CC4)cc3)c2)s1 [Example 52, N-(2-amino-5-(5-methylthiophen-2-yl)phenyl)-4-(1-(thiazol-2-yl)cyclopropyl)benzamide]
0.00774	Nc1ccc(F)cc1NC(=O)c1ccc(C2(c3nc(-c4cnccn4)cs3)CCOCC2)cc1 [Example 57, N-(2-amino-5-fluorophenyl)-4-(4-(4-(pyrazin-2-yl)thiazol-2-yl)tetrahydropyran-4-yl)benzamide]
0.00749	Cc1ccc(-c2ccc(N)c(NC(=O)c3ccc(C4(c5nccs5)CCOCC4)cc3)c2)s1 [Example 46, N-(2-amino-5-(5-methylthiophen-2-yl)phenyl)-4-(4-(thiazol-2-yl)tetrahydropyran-4-yl)benzamide]
0.0071	CN1CCN(c2ccc(-c3csc(C4(c5ccc(C(=O)NO)cc5)CCOCC4)n3)cn2)CC1 [Example 44, N-hydroxy-4-(4-(4-(6-(4-methylpiperazin-1-yl)pyridin-3-yl)thiazol-2-yl)tetrahydropyran-4-yl)benzamide]
0.00702	Nc1ccccc1NC(=O)c1ccc(C2(c3nc(-c4cnccn4)cs3)CCOCC2)cc1 [Example 41, N-(2-aminophenyl)-4-(4-(4-(pyrazin-2-yl)thiazol-2-yl)tetrahydropyran-4-yl)benzamide]
0.00639	CCOc1csc(C2(c3ccc(C(=O)Nc4cc(-c5ccc(F)cc5)ccc4N)cc3)CCOCC2)n1 [Example 40, N-(4-amino-4′-fluorobiphenyl-3-yl)-4-(4-(4-ethoxythiazol-2-yl)tetrahydropyran-4-yl)benzamide]
0.00606	Nc1ccc(-c2ccc(Cl)s2)cc1NC(=O)c1ccc(C2(c3nccs3)CCOCC2)cc1 [Example 45, N-(2-amino-5-(5-chlorothiophen-2-yl)phenyl)-4-(4-(thiazol-2-yl)tetrahydropyran-4-yl)benzamide]
0.00576	CN1CCN(c2ccc(-c3csc(C4(c5ccc(C(=O)Nc6ccccc6N)cc5)CCOCC4)n3)cc2)CC1 [Example 47, N-(2-aminophenyl)-4-(4-(4-(4-(4-methylpiperazin-1-yl)phenyl)thiazol-2-yl)tetrahydropyran-4-yl)benzamide]
0.0039	Nc1ccc(-c2cccs2)cc1NC(=O)c1ccc(C2(c3ncc(-c4cccnc4)s3)CCOCC2)cc1 [Example 51, N-(2-amino-5-(thiophen-2-yl)phenyl)-4-(4-(5-(pyridin-3-yl)thiazol-2-yl)tetrahydropyran-4-yl)benzamide]
0.00388	CCOc1csc(C2(c3ccc(C(=O)Nc4cc(-c5cccs5)ccc4N)cc3)CCOCC2)n1 [Example 37, N-(2-amino-5-(thiophen-2-yl)phenyl)-4-(4-(4-ethoxythiazol-2-yl)tetrahydropyran-4-yl)benzamide]
0.00262	Nc1ccc(-c2cccs2)cc1NC(=O)c1ccc(C2(c3nccs3)CC2)cc1 [Example 50, N-(2-amino-5-(thiophen-2-yl)phenyl)-4-(1-(thiazol-2-yl)cyclopropyl)benzamide]
0.00247	Nc1ccc(-c2cccs2)cc1NC(=O)c1ccc(C2(c3ccccn3)CCOCC2)cc1 [Example 49]
0.00231	Nc1ccc(-c2ccc(F)cc2)cc1NC(=O)c1ccc(C2(c3ccccn3)CCOCC2)cc1 [Example 59, N-(4-amino-4′-fluorobiphenyl-3-yl)-4-(4-(pyridin-2-yl)tetrahydropyran-4-yl)benzamide]
0.00209	Cc1nc(C2(c3ccc(C(=O)Nc4cc(-c5ccc(F)cc5)ccc4N)cc3)CCOCC2)sc1C(C)O (stereo not drawn) [Example 61, N-(4-amino-4′-fluorobiphenyl-3-yl)-4-(4-(5-(1-hydroxyethyl)-4-methylthiazol-2-yl)tetrahydropyran-4-yl)benzamide]
